Laboratory results as given in patent US10449186B2, “Phenylethynyl-substituted benzenes and heterocycles for the treatment of cancer” (UNIVERSITY OF KENTUCKY RESEARCH FOUNDATION, priority 2017, dated 2019).
Like-named read-outs stand apart in the source and are kept apart here.

Tests used:
cyclin D1 = assay: Western blot, cyclin D1 expression in LS174T cells; assay type: cell-based; settings: 300 nM
Description: (§1) FIG. 2A is a western blot showing the effects of 4-((2,6-difluorophenyl)ethynyl)-N,N-dimethylaniline (2), 4-((2,6-difluorophenyl)ethynyl)-N,N-dimethylisoquinolin-1-amine (5nn), and 4-((2,6-difluorophenyl)ethynyl)-N-methylisoquinolin-1-amine (5oo) on the expression of […] and p21^Wif1/Cip1 in LS174T cells at 300 nM concentrations.
(§2) Western blotting. Western blotting was performed as described previously. The following antibodies were used: anti-c-myc (Epitomics, 1472-1), anti-p21^Wif1/Cip1 (Cell Signaling, 2947), anti-β-tubulin (DSHB, E7).

[1] = system: LS174T colon cancer cells; settings: data from Sviripa et al. 2014, cited from earlier work; for inhibition of proliferation (%) of colon cancer LS174T cells: Table 1; for inhibition of cell proliferation (%) of colon cancer LS174T cells: Table 2
p21^Wif1/Cip1 = assay: Western blot, p21^Wif1/Cip1 expression in LS174T cells; assay type: cell-based; settings: 300 nM
Description: as §1, §2

[2] = system: LS174T colon cancer cells; assay: LS174T cell proliferation assay; assay type: cell-based; parameters: effects on LS174T colon cancer cell proliferation (Table 3): unit not given here; settings: for IC50 / inhibition at 0.1 µM / inhibition at 1 µM / inhibition at 10 µM / inhibition at 0.03 µM: Homo sapiens, LS174T; for IC50: read-out: IC50, LS174T cell proliferation assay
Description: Cell proliferation assay. LS174T cells were grown in RPMI medium (Mediatech) supplemented with 5% fetal bovine serum and 1% penicillin/streptomycin. For cell proliferation assays, 3×10^4 cells/well growing in 12-well plates were treated with DMSO or inhibitors. The cell numbers and viability were analyzed by Vi-Cell Cell Viability Analyzer after 4 days. The IC50 values were calculated with GraphPad Prim 5.

[3] = read-out: inhibition of cell proliferation (%) of colon cancer LS174T cells
[4] = Table 2, 1 μM, read-out: inhibition of cell proliferation (%) of colon cancer LS174T cells
[5] = Table 2, 10 μM, read-out: inhibition of cell proliferation (%) of colon cancer LS174T cells
[6] = read-out: inhibition of LS174T colon cancer cell proliferation

Row | SMILES | melting point [°C] | inhibition at 0.1 µM [2, 3] [%] | inhibition at 1 µM [2, 3] [%] | inhibition at 10 µM [2, 3] [%] | further results
1 | CN(C)c1ccc(C#Cc2c(F)cccc2F)cc1 [Compound 2, 4-((2,6-difluorophenyl)ethynyl)-N,N-dimethylaniline] |  |  |  |  | cyclin D1 expression (western blot) (cyclin D1): inhibited cyclin D1 expression; inhibition of proliferation (%) of colon cancer LS174T cells ([1]; 100 nM): 85.2%; inhibition of proliferation (%) of colon cancer LS174T cells ([1]; 1 μM): 99.5%; inhibition of cell proliferation (%) of colon cancer LS174T cells ([1]; 30 nM): 57 ± 1.2%; inhibition of cell proliferation (%) of colon cancer LS174T cells ([1]; 100 nM): 85.2 ± 0.5%; inhibition of cell proliferation (%) of colon cancer LS174T cells ([1]; 1 μM): 99.5 ± 0.1%; water solubility (Water solubility; parent compound): sparingly water-soluble; p21^Wif1/Cip1 expression (western blot) (p21^Wif1/Cip1): induced p21^Wif1/Cip1; IC50 [2]: 25.1 ± 1.3 nM
2 | Nc1ncc(C#Cc2c(F)cccc2F)c2ccccc12 [Compound 5mm, 4-((2,6-Difluorophenyl)ethynyl)isoquinolin-1-amine] | 200 to 201 | 35.5 ± 1.7 | 86.2 ± 1.6 | 93.1 ± 1.6 | 
3 | Fc1cccc(F)c1C#Cc1cnc2ccccc2c1 [Compound 5n, 3-((2,6-Difluorophenyl)ethynyl)quinoline] | 115 to 117 | 0 | 41.7 ± 6.5 | 90.4 ± 1 | 
4 | CN(C)c1ncc(C#Cc2c(F)cccc2F)c2ccccc12 [Compound 5nn, 4-((2,6-difluorophenyl)ethynyl)-N,N-dimethylisoquinolin-1-amine] | 122 to 124 | 81.7 ± 2.1 | 99.5 ± 0.1 | 97.6 ± 1.5 | cyclin D1 expression (western blot) (cyclin D1): inhibited cyclin D1 expression; p21^Wif1/Cip1 expression (western blot) (p21^Wif1/Cip1): induced p21^Wif1/Cip1; IC50 [2]: 11.8 ± 1.5 nM; inhibition at 0.03 µM [2, 3]: 86 ± 2%
5 | Fc1cccc(F)c1C#Cc1ccnc2ccccc12 [Compound 5o, 4-((2,6-Difluorophenyl)ethynyl)quinoline] | 101 to 102 |  | 15.4 ± 9.1 | 59 ± 7.5 | 
6 | CNc1ncc(C#Cc2c(F)cccc2F)c2ccccc12 [Compound 5oo, 4-((2,6-Difluorophenyl)ethynyl)-N-methylisoquinolin-1-amine] | 118 to 120 | 99.5 ± 0.5 | 99.8 ± 0.2 | 98.9 ± 1 | cyclin D1 expression (western blot) (cyclin D1): inhibited cyclin D1 expression; p21^Wif1/Cip1 expression (western blot) (p21^Wif1/Cip1): induced p21^Wif1/Cip1; IC50 [2]: 4.2 ± 0.2 nM; inhibition at 0.03 µM [2, 3]: 94.5 ± 1.5%
7 | Fc1cccc(F)c1C#Cc1cc2ccccc2nc1Cl [Compound 5p, 2-Chloro-3-((2,6-difluorophenyl)ethynyl)quinoline] | 137 to 138 |  | 28.4 ± 10.5 | 85.1 ± 6.2 | 
8 | CN1CCN(c2ncc(C#Cc3c(F)cccc3F)c3ccccc23)CC1 [Compound 5pp, 4-((2,6-Difluorophenyl)ethynyl)-1-(4-methylpiperazin-1-yl)isoquinoline] |  |  | 23.2 ± 9.4 | 100 | water solubility (Water solubility; hydrochloride salts): completely water-soluble
9 | Fc1cccc(F)c1C#Cc1cnc2ccccc2c1Cl [Compound 5q, 4-Chloro-3-((2,6-difluorophenyl)ethynyl)quinoline] | 140 to 142 |  |  |  | inhibition at 0.1 µM ([2]; Table 2, 100 nM, read-out: inhibition of cell proliferation (%) of colon cancer LS174T cells): 0%; inhibition at 1 µM [2, 4]: 51.5 ± 20.4%; inhibition at 10 µM [2, 5]: 80.4 ± 13.7%
10 | CN(C)c1ncc(C#Cc2c(F)cccc2F)c2ncccc12 [Compound 5qq, 8-((2,6-Difluorophenyl)ethynyl)-N,N-dimethyl-1,6-naphthyridin-5-amine] | 149 to 150 | 59.5 ± 3.5 | 87.9 ± 0.8 | 85.2 ± 1 | water solubility (Water solubility; hydrochloride salts): completely water-soluble; inhibition at 1 µM [2, 6]: > 75%
11 | Fc1cccc(F)c1C#Cc1ccc2cncnc2c1 [Compound 5rr, 7-((2,6-Difluorophenyl)ethynyl)quinazoline] | 166 to 168 |  |  |  | inhibition at 1 µM [2, 4]: 33.8 ± 4.8%; inhibition at 10 µM [2, 5]: 96.3 ± 0.8%
12 | Fc1ccc2cc(C#Cc3c(F)cccc3F)cnc2c1 [Compound 5s, 3-((2,6-Difluorophenyl)ethynyl)-7-fluoroquinoline] | 142 to 143 | 14.8 ± 5.5 | 69.4 ± 4.5 | 95.1 ± 1.6 | 
13 | Fc1cccc(F)c1C#Cc1cnc2c(F)cccc2c1 [Compound 5t, 3-((2,6-Difluorophenyl)ethynyl)-8-fluoroquinoline] | 136 to 137 | 8.8 ± 5.1 | 63.6 ± 8.4 | 89.1 ± 8.2 | 
14 | Fc1cccc(F)c1C#Cc1ccnc2cc(Cl)ccc12 [Compound 5u, 7-Chloro-4-((2,6-difluorophenyl)ethynyl)quinoline] | 130 to 132 |  | 36 ± 0.4 | 74.3 ± 0.2 | 
15 | Fc1cccc(F)c1C#Cc1cccc2ncccc12 [Compound 5v, 5-((2,6-Difluorophenyl)ethynyl)quinoline] | 98 to 100 |  | 43.1 ± 11.2 | 94.7 ± 2.9 | 
16 | Fc1cccc(F)c1C#Cc1ccc2ncccc2c1 [Compound 5w, 6-((2,6-Difluorophenyl)ethynyl)quinoline] | 91 to 93 |  | 11 ± 30.4 | 80.1 ± 1 | 
17 | Fc1cccc(F)c1C#Cc1ccc2cccnc2c1 [Compound 5x, 7-((2,6-Difluorophenyl)ethynyl)quinoline] | 123 to 125 | 2.9 ± 14 | 90.7 ± 0.6 | 99.4 ± 0.3 | inhibition at 1 µM [2, 6]: > 75%
18 | Fc1cccc(F)c1C#Cc1cccc2cccnc12 [Compound 5y, 8-((2,6-Difluorophenyl)ethynyl)quinoline] | 108 to 110 |  | 47.6 ± 3.5 | 92.7 ± 2.9 | 
19 | Fc1cccc(F)c1C#Cc1ccc2nc(Cl)ccc2c1 [Compound 5z, 2-Chloro-6-((2,6-difluorophenyl)ethynyl)quinoline] | 137 to 138 |  | 21.2 ± 11.4 | 63.3 ± 2.3 | 
20 | Fc1cncc(F)c1C#Cc1ccccc1 [Compound 7a, 3,5-Difluoro-4-(phenylethynyl)pyridine] | 52 to 54 |  |  |  | effects on LS174T colon cancer cell proliferation (Table 3) ([2]; 30 nM): 5.3; effects on LS174T colon cancer cell proliferation (Table 3) ([2]; 100 nM): 24.7; effects on LS174T colon cancer cell proliferation (Table 3) ([2]; 300 nM): 12.2
21 | Nc1ccc(C#Cc2c(F)cncc2F)cc1 [Compound 7b, 4-((3,5-Difluoropyridin-4-yl)ethynyl)aniline] | 156 to 158 |  |  |  | effects on LS174T colon cancer cell proliferation (Table 3) ([2]; 30 nM): 11.4; effects on LS174T colon cancer cell proliferation (Table 3) ([2]; 100 nM): 30.5; effects on LS174T colon cancer cell proliferation (Table 3) ([2]; 300 nM): 36.2
22 | CNc1ccc(C#Cc2c(F)cncc2F)cc1 [Compound 7c, 4-((3,5-Difluoropyridin-4-yl)ethynyl)-N-methylaniline] | 149 to 151 |  |  |  | effects on LS174T colon cancer cell proliferation (Table 3) ([2]; 30 nM): 20.3; effects on LS174T colon cancer cell proliferation (Table 3) ([2]; 100 nM): 49.5; effects on LS174T colon cancer cell proliferation (Table 3) ([2]; 300 nM): 62.6
